Some test systems named below: A549; BT-549; HCC 2998; HCT-15; K562; MDA-MB-435; MDA-N; NCI-H226; NCI-H460; OVCAR-8; PC-3; SF-268; SK-MEL-2; SK-MEL-5; SK-OV-3; TK-10; U-251; HCT-116; HOP-62.
What all share (test): inhibition of tumour cell growth, NCI panel, 48 h

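Dose response: 5 concentrations. Exposure: 48 h. Format: 96-well plates. Endpoint: linear interpolation; highest concentration if not reached. GI50 marks 50% less growth.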 Calls of active or inactive are those of the source. No stated cut-off is given here; in the data, active = GI50 up to about 1.1 µM and inactive = higher.

Turning to `CCC/C=C/c1cc2c(cc1O)CC[C@@H]1[C@@H]2CC[C@]2(C)[C@@H](O)CC[C@@H]12`, the GI50 is 18.1 µM (inactive) with A549; 18.8 µM (inactive) in the assay with BT-549; 21.5 µM (inactive) in the assay on HCC 2998; 18.6 µM in the assay with HCT-15; 16.8 µM (inactive) in the assay on K562; 15.7 µM (inactive) in the assay on MDA-MB-435. In addition, the GI50 is 15.1 µM (inactive) in the assay with MDA-N; 24.7 µM (inactive) with NCI-H226; 17.4 µM (inactive) with NCI-H460; 22.9 µM (inactive) in the assay with OVCAR-8; 15.8 µM (inactive) with PC-3; 18.4 µM (inactive) in the assay with SF-268. Moreover, the GI50 in the assay on SK-MEL-2 was 16.6 µM (inactive); with SK-MEL-5, 16.4 µM (inactive); with SK-OV-3, 26.8 µM (inactive); with TK-10, 20.7 µM (inactive); in the assay with U-251 it was 16.9 µM (inactive).
`O=S(=O)(O)c1ccc(Nc2ccnc3ccccc23)cc1`: the GI50 with A549 was > 100 µM (inactive); in the assay with BT-549, > 100 µM (inactive); with HCC 2998 it was > 100 µM (inactive); with HCT-116, > 100 µM (inactive); in the assay on HCT-15, greater than 100 µM; with HOP-62, > 100 µM (inactive). The GI50 with K562, with MDA-MB-435, in the assay on MDA-N, with NCI-H226, in the assay on OVCAR-8 and in the assay with PC-3 was > 100 µM (inactive) each time. Further, the GI50 in the assay on SF-268, with SK-MEL-2, in the assay with SK-MEL-5, with SK-OV-3, in the assay on TK-10 and in the assay on U-251 was > 100 µM (inactive) in each case.
For `COc1cc(NP(=O)(Oc2ccccc2)Oc2ccccc2)ccc1Nc1c2ccccc2nc2c1[nH]c1ccccc12`, the GI50 is 0.16 µM (active) with A549; 5.51 µM (inactive) in the assay with BT-549; 4.36 µM (inactive) with HCC 2998; 3.21 µM (inactive) with HCT-116; 1.63 µM in the assay with HCT-15; 0.359 µM (active) in the assay with HOP-62. The GI50 with K562 is 1.62 µM (inactive); in the assay on MDA-MB-435, 3.11 µM (inactive); with MDA-N it was 2.77 µM (inactive); in the assay with NCI-H460, 0.0226 µM (active); with OVCAR-8, 1.23 µM (inactive); with PC-3 it was 4.41 µM (inactive). Besides, the GI50 is 6.52 µM (inactive) in the assay on SF-268; 7.24 µM (inactive) with SK-MEL-2; 1.22 µM (inactive) with SK-MEL-5; 1.88 µM (inactive) in the assay with SK-OV-3; 3.01 µM (inactive) with TK-10; 0.524 µM (active) in the assay on U-251.
`CCOC(=O)N/N=C(\Cc1ccccc1)OCC`: the GI50 with A549 was > 100 µM (inactive); in the assay on BT-549, > 100 µM (inactive); in the assay with HCC 2998, > 100 µM (inactive); with HCT-116, > 100 µM (inactive); with HCT-15 it was greater than 100 µM; in the assay with HOP-62, > 100 µM (inactive). Further, the GI50 in the assay on K562, in the assay on MDA-MB-435, in the assay on MDA-N, in the assay on OVCAR-8, in the assay on PC-3 and in the assay with SF-268 was > 100 µM (inactive) in each case. The GI50 in the assay on SK-MEL-2, in the assay on SK-MEL-5, in the assay with SK-OV-3, in the assay with TK-10 and with U-251 was > 100 µM (inactive) each time.
With `Cc1ccc([N+](=O)[O-])cc1S(=O)(=O)Nc1ccc(C2=NOC(c3ccccc3)C2)cc1` (stereo not given), the GI50 was 6.89 µM (inactive) in the assay with A549; 12.4 µM (inactive) with BT-549; 9.04 µM (inactive) in the assay with HCC 2998; 7.08 µM (inactive) in the assay with HCT-116; 4.11 µM with HCT-15; 5.3 µM (inactive) in the assay on HOP-62. For the same compound, the GI50 in the assay with K562 is 1.96 µM (inactive); in the assay on MDA-MB-435, 1.5 µM (inactive); in the assay on MDA-N, 1.99 µM (inactive); in the assay with NCI-H226, 24.9 µM (inactive); in the assay with NCI-H460, 5.52 µM (inactive); in the assay with OVCAR-8, 18.3 µM (inactive). In addition, the GI50 with PC-3 was 7.19 µM (inactive); in the assay on SF-268, 12.4 µM (inactive); in the assay with SK-MEL-2, 3.65 µM (inactive); in the assay on SK-MEL-5, 6.47 µM (inactive); with SK-OV-3 it was 11.5 µM (inactive).
As for `Cc1ccc(NC(=O)CC(=O)n2nc(C)c(/N=N/c3cccc(C)c3)c2C)cc1`, the GI50 in the assay with A549 is > 100 µM (inactive); in the assay on BT-549 it was > 100 µM (inactive); in the assay on HCC 2998 it was > 100 µM (inactive); in the assay on HCT-116 it was > 100 µM (inactive); in the assay on HCT-15, greater than 100 µM; in the assay on HOP-62 it was 65.8 µM (inactive). For the same compound, the GI50 in the assay on MDA-MB-435, with MDA-N, in the assay on NCI-H226, in the assay with NCI-H460, in the assay on OVCAR-8 and in the assay with PC-3 was > 100 µM (inactive) in each case. For the same compound, the GI50 with SF-268 was 69 µM (inactive); with SK-MEL-2 it was > 100 µM (inactive); in the assay on SK-MEL-5 it was > 100 µM (inactive); in the assay with SK-OV-3, > 100 µM (inactive); in the assay on TK-10, > 100 µM (inactive); in the assay on U-251, > 100 µM (inactive).
`CC1(c2nc3cc(Cl)c(Cl)cc3[nH]2)CCC(CO)C(C)(C)O1` (stereo not given): the GI50 was 33.6 µM (inactive) in the assay with A549; 17.1 µM (inactive) in the assay on BT-549; 32.2 µM (inactive) in the assay on HCC 2998; 31.4 µM (inactive) with HCT-116; 35.6 µM with HCT-15; 33.3 µM (inactive) in the assay on HOP-62. The GI50 is 36.7 µM (inactive) in the assay with K562; 41.4 µM (inactive) in the assay on MDA-MB-435; 29 µM (inactive) in the assay with MDA-N; 12.4 µM (inactive) in the assay with NCI-H226; 19.5 µM (inactive) with OVCAR-8; 29 µM (inactive) in the assay on PC-3. In addition, the GI50 with SF-268 was 34.8 µM (inactive); in the assay on SK-MEL-2, 30.3 µM (inactive); with SK-MEL-5, 13.2 µM (inactive); in the assay on SK-OV-3 it was 94.2 µM (inactive); with TK-10, 27.6 µM (inactive); in the assay on U-251 it was 38.6 µM (inactive).
Consider `CC1(C)CC(=O)C(=CNC(=O)c2ccncc2)C(=O)C1`, for which the GI50 in the assay on A549 is > 100 µM (inactive); with BT-549, > 100 µM (inactive); in the assay on HCC 2998, > 100 µM (inactive); with HCT-116 it was > 100 µM (inactive); with HCT-15, greater than 100 µM; in the assay on HOP-62 it was > 100 µM (inactive). In addition, the GI50 in the assay with MDA-MB-435, with MDA-N, with NCI-H226, in the assay on NCI-H460, with OVCAR-8 and in the assay on PC-3 was > 100 µM (inactive) throughout. Besides, the GI50 in the assay on SF-268, with SK-MEL-2, in the assay with SK-MEL-5, in the assay with SK-OV-3, in the assay on TK-10 and in the assay with U-251 was > 100 µM (inactive) each time.
In the case of `CC(C)/C=N\n1c(N)c(C#N)c(C#N)c1C(C)C`, the GI50 with A549 is 25.2 µM (inactive); with BT-549, 24.2 µM (inactive); in the assay with HCC 2998, 13.4 µM (inactive); in the assay on HCT-116, 24.5 µM (inactive); in the assay on HCT-15 it was 24.3 µM; in the assay with HOP-62, 31.1 µM (inactive). Moreover, the GI50 in the assay with K562 is 24 µM (inactive); in the assay on MDA-MB-435 it was 31.3 µM (inactive); in the assay on MDA-N, 18.6 µM (inactive); in the assay on NCI-H226 it was 14.7 µM (inactive); in the assay on OVCAR-8, 20.3 µM (inactive); in the assay on PC-3 it was 17.1 µM (inactive). In addition, the GI50 was 28.1 µM (inactive) with SF-268; 18.2 µM (inactive) with SK-MEL-2; 15.7 µM (inactive) in the assay with SK-MEL-5; 45.1 µM (inactive) in the assay on SK-OV-3; 22.5 µM (inactive) in the assay on TK-10; 28.9 µM (inactive) in the assay on U-251.
Regarding `N#Cc1ccc(Oc2nc3ccc(C(F)(F)F)cc3nc2-c2ccccc2)cc1`, the GI50 in the assay with A549 is 16.7 µM (inactive); in the assay with BT-549 it was 34.4 µM (inactive); with HCC 2998 it was 17 µM (inactive); in the assay on HCT-116, 15.3 µM (inactive); with HCT-15, 14.9 µM; with HOP-62, 20.3 µM (inactive). Moreover, the GI50 in the assay with K562 was 22.1 µM (inactive); with MDA-MB-435 it was 17.7 µM (inactive); with MDA-N, 23 µM (inactive); in the assay on NCI-H460, 17.6 µM (inactive); with OVCAR-8 it was 14.9 µM (inactive); with PC-3 it was 14 µM (inactive). Further, the GI50 in the assay on SF-268 was 24.9 µM (inactive); in the assay on SK-MEL-2 it was 19.5 µM (inactive); with SK-MEL-5 it was 19.7 µM (inactive); in the assay with SK-OV-3, 12.5 µM (inactive); in the assay on TK-10 it was 19.5 µM (inactive); in the assay on U-251 it was 17.2 µM (inactive).
Regarding `c1ccc2c(c1)/C(=N\NC1=NCCN1)c1nc3ccccc3nc1-2`, the GI50 in the assay with A549 was 3.86 µM (inactive); in the assay on BT-549, 20.9 µM (inactive); in the assay on HCC 2998, 4.91 µM (inactive); with HCT-116, 0.863 µM (active); in the assay with HCT-15 it was 3.52 µM; in the assay with HOP-62 it was 3.72 µM (inactive). Moreover, the GI50 with K562 was 4.52 µM (inactive); in the assay with MDA-MB-435 it was 6.32 µM (inactive); with MDA-N, 7.19 µM (inactive); in the assay with NCI-H226, 3.63 µM (inactive); with NCI-H460 it was 2.44 µM (inactive); with OVCAR-8 it was 1.35 µM (inactive). Besides, the GI50 in the assay on PC-3 is 2.56 µM (inactive); with SF-268, 6.67 µM (inactive); with SK-MEL-5 it was 2.6 µM (inactive); with SK-OV-3, 1.54 µM (inactive); in the assay with TK-10, 14.1 µM (inactive); in the assay on U-251 it was 6.87 µM (inactive).

Values taken from ChEMBL document CHEMBL1201862, “PubChem BioAssay data set” (2004).
